Source: patent US9006282B2 (Redx Pharma Limited, priority 2009, dated 2015)

Tests used:
[1] = molecular target: HMG-CoA Reductase (Homo sapiens (Human), UniProt P04035); experiment: HMG-CoA Reductase assay kit (Sigma-Aldrich CS1090), spectrophotometric NADPH absorbance at 340 nm; format: biochemical; conditions: inhibitor varied 0 nM to 50 nM, NADPH and HMG-CoA 200 μM
Procedure: All assays were carried out in a reaction buffer containing […] KxPO4 at pH 7.2, 1 mM EDTA, 500 mM KCl and 1 mg/ml BSA. The concentrations of NADPH and HMG-CoA were both 200 μM. […] Absorbance readings were then taken every 20 seconds for 600 seconds.
Preparation of the Assay Solution
Add a buffer to all samples. • b. […] Add the reconstituted NADPH to all samples. • d. Add Substrate Solution (HMG-CoA) to all samples. • e. […] Mix the samples thoroughly.
3. The kinetics programme was started immediately.
V=volume of enzyme used in the assay (ml)
0.6=enzyme concentration in mg-protein (mgPO/ml (0.55-0.65 mgP/ml)
LP=light path in cm (1 for cuvettes).

[2] = test system: rat plasma triglyceride levels; experiment: Rat plasma triglyceride levels after 3 or 5 days BID oral treatment; format: in vivo; conditions: male SD rats, 25 mg/kg po BID for 3 or 5 days, plasma 16 hours after last dose

Chain of HMG-CoA Reductase (P04035 340-888): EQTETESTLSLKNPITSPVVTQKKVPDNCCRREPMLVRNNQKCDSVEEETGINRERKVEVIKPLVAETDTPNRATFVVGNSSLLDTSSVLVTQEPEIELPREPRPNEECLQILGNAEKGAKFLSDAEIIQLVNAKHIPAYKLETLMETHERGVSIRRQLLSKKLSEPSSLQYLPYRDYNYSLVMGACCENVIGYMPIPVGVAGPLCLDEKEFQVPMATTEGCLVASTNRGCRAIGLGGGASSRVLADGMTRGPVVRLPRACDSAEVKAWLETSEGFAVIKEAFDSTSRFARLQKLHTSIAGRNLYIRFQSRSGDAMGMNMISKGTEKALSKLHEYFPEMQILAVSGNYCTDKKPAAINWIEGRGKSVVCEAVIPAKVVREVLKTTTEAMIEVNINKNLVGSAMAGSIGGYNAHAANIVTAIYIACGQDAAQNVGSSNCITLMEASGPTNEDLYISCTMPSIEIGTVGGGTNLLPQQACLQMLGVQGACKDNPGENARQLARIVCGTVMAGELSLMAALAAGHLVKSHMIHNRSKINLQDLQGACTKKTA

Row | SMILES | IC50 ([1]; rosuvastatin compounds) [nM] | IC50 ([1]; atorvastatin compounds) [nM] | also measured
1 | COC1C[C@H](OC(=O)c2cccnc2)C[C@@H](/C=C/c2c(-c3ccc(F)cc3)nc(N(C)S(C)(=O)=O)nc2C(C)C)O1 (some centres unmarked) | < 1 | – | –
2 | CC(C)c1nc(N(C)S(C)(=O)=O)nc(-c2ccc(F)cc2)c1/C=C/[C@@H]1C[C@@H](O)CC(Oc2c(F)cc(F)cc2F)O1 (some centres unmarked) | 1 | – | –
3 | CCCOC1C[C@H](O)C[C@@H](/C=C/c2c(-c3ccc(F)cc3)nc(N(C)S(C)(=O)=O)nc2C(C)C)O1 (some centres unmarked) | 10 | – | –
4 | CC(C)c1c(C(=O)Nc2ccccc2)c(-c2ccccc2)c(-c2ccc(F)cc2)n1CC[C@@H]1C[C@@H](O)CC(OC2CCCCC2)O1 (some centres unmarked) | – | < 1 | –
5 | CC(C)c1nc(N(C)S(C)(=O)=O)nc(-c2ccc(F)cc2)c1C=CC(O)CC(O)CC(=O)O (centres unmarked) [rosuvastatin, 7-[4-(4-fluorophenyl)-6-(1-methylethyl)-2-(methyl-methylsulfonyl-amino)-pyrimidin-5-yl]-3,5-dihydroxy-hept-6-enoic acid] | – | – | effect on plasma triglycerides [2]: marked reduction in plasma triglycerides

Further lines, with some results ahead:

Row | IC50 ([1]; rosuvastatin compounds) [nM] | IC50 ([1]; atorvastatin compounds) [nM] | SMILES | also measured
6 | 2 | – | CC(C)c1nc(N(C)S(C)(=O)=O)nc(-c2ccc(F)cc2)c1/C=C/[C@@H]1C[C@@H](OCc2ccccc2)CC(OCC(Cl)(Cl)Cl)O1 (some centres unmarked) | –
7 | 2 | – | COc1ccc(OC2C[C@H](O)C[C@@H](/C=C/c3c(-c4ccc(F)cc4)nc(N(C)S(C)(=O)=O)nc3C(C)C)O2)c(OC)c1 (some centres unmarked) | –
8 | 2 | – | CC(C)c1nc(N(C)S(C)(=O)=O)nc(-c2ccc(F)cc2)c1/C=C/[C@@H]1C[C@@H](O)CC(OCC(Cl)(Cl)Cl)O1 (some centres unmarked) | –
9 | – | < 1 | COC1C[C@H](OC(=O)c2cccnc2)C[C@@H](CCn2c(-c3ccc(F)cc3)c(-c3ccccc3)c(C(=O)Nc3ccccc3)c2C(C)C)O1 (some centres unmarked) | –
10 | – | < 1 | CCCOC1C[C@H](O)C[C@@H](CCn2c(-c3ccc(F)cc3)c(-c3ccccc3)c(C(=O)Nc3ccccc3)c2C(C)C)O1 (some centres unmarked) | –
11 | – | < 1 | COc1ccc(OC2C[C@H](O)C[C@@H](CCn3c(-c4ccc(F)cc4)c(-c4ccccc4)c(C(=O)Nc4ccccc4)c3C(C)C)O2)c(OC)c1 (some centres unmarked) | –
